Data from the NIST ThermoML archive (doi:10.1021/acs.jced.8b00554).

Conditions: Liquid, Vibrating tube method

CCCCCCCCC [nonane]
Conditions | mass density [kg/m3]
313.15 K, 100 kPa | 701.49
313.15 K, 1050 kPa | 702.34
313.15 K, 2030 kPa | 703.25
313.15 K, 3030 kPa | 704.17
313.15 K, 4040 kPa | 705.07
313.15 K, 5050 kPa | 705.96
313.15 K, 5980 kPa | 706.78
313.15 K, 7050 kPa | 707.7
313.15 K, 8060 kPa | 708.56
313.15 K, 9060 kPa | 709.4
313.15 K, 10070 kPa | 710.23
313.15 K, 11050 kPa | 710.92
313.15 K, 12030 kPa | 711.71
313.15 K, 13030 kPa | 712.51
313.15 K, 14040 kPa | 713.3
313.15 K, 15050 kPa | 714.09
313.15 K, 15980 kPa | 714.8
313.15 K, 17050 kPa | 715.61
313.15 K, 18060 kPa | 716.36
313.15 K, 19060 kPa | 717.1
313.15 K, 20070 kPa | 717.83
323.15 K, 100 kPa | 693.34
323.15 K, 1030 kPa | 694.03
323.15 K, 2040 kPa | 695.02
323.15 K, 3030 kPa | 695.98
323.15 K, 4040 kPa | 696.94
323.15 K, 5040 kPa | 697.88
323.15 K, 6040 kPa | 698.81
323.15 K, 7050 kPa | 699.74
323.15 K, 8060 kPa | 700.65
323.15 K, 9060 kPa | 701.55
323.15 K, 10060 kPa | 702.43
323.15 K, 11030 kPa | 703.16
323.15 K, 12040 kPa | 704.02
323.15 K, 13030 kPa | 704.87
323.15 K, 14040 kPa | 705.71
323.15 K, 15040 kPa | 706.54
323.15 K, 16040 kPa | 707.35
323.15 K, 17050 kPa | 708.16
323.15 K, 18060 kPa | 708.96
323.15 K, 19060 kPa | 709.74
323.15 K, 20060 kPa | 710.52
333.15 K, 100 kPa | 685.03
333.15 K, 1030 kPa | 685.98
333.15 K, 2020 kPa | 687
333.15 K, 3020 kPa | 688.03
333.15 K, 4020 kPa | 689.05
333.15 K, 5030 kPa | 690.05
333.15 K, 6030 kPa | 691.03
333.15 K, 7030 kPa | 692
333.15 K, 8040 kPa | 692.97
333.15 K, 9040 kPa | 693.91
333.15 K, 10050 kPa | 694.85
333.15 K, 11030 kPa | 695.64
333.15 K, 12020 kPa | 696.54
333.15 K, 13020 kPa | 697.44
333.15 K, 14020 kPa | 698.32
333.15 K, 15030 kPa | 699.2
333.15 K, 16030 kPa | 700.06
333.15 K, 17030 kPa | 700.91
333.15 K, 18040 kPa | 701.76
333.15 K, 19040 kPa | 702.59
333.15 K, 20050 kPa | 703.42
343.15 K, 100 kPa | 677.18
343.15 K, 1000 kPa | 678.15
343.15 K, 2010 kPa | 679.25
343.15 K, 3010 kPa | 680.33
343.15 K, 4020 kPa | 681.41
343.15 K, 5030 kPa | 682.46
343.15 K, 6030 kPa | 683.5
343.15 K, 7040 kPa | 684.52
343.15 K, 8040 kPa | 685.53
343.15 K, 9050 kPa | 686.53
343.15 K, 10050 kPa | 687.51
343.15 K, 11000 kPa | 688.33
343.15 K, 12010 kPa | 689.29
343.15 K, 13010 kPa | 690.24
343.15 K, 14020 kPa | 691.18
343.15 K, 15030 kPa | 692.1
343.15 K, 16030 kPa | 693.01
343.15 K, 17040 kPa | 693.91
343.15 K, 18040 kPa | 694.8
343.15 K, 19050 kPa | 695.68
343.15 K, 20050 kPa | 696.54
353.15 K, 100 kPa | 669.55
353.15 K, 1000 kPa | 670.57
353.15 K, 2000 kPa | 671.72
353.15 K, 3010 kPa | 672.85
353.15 K, 4010 kPa | 673.98
353.15 K, 5020 kPa | 675.08
353.15 K, 6020 kPa | 676.17
353.15 K, 7020 kPa | 677.25
353.15 K, 8030 kPa | 678.31
353.15 K, 9030 kPa | 679.35
353.15 K, 10040 kPa | 680.39
353.15 K, 11000 kPa | 681.26
353.15 K, 12000 kPa | 682.26
353.15 K, 13010 kPa | 683.26
353.15 K, 14010 kPa | 684.23
353.15 K, 15020 kPa | 685.21
353.15 K, 16020 kPa | 686.16
353.15 K, 17020 kPa | 687.1
353.15 K, 18030 kPa | 688.03
353.15 K, 19030 kPa | 688.95
353.15 K, 20040 kPa | 689.86
363.15 K, 100 kPa | 662.05
363.15 K, 990 kPa | 663.2
363.15 K, 2000 kPa | 664.41
363.15 K, 3010 kPa | 665.6
363.15 K, 4010 kPa | 666.77
363.15 K, 5020 kPa | 667.93
363.15 K, 6020 kPa | 669.07
363.15 K, 7030 kPa | 670.19
363.15 K, 8030 kPa | 671.3
363.15 K, 9040 kPa | 672.4
363.15 K, 10040 kPa | 673.47
363.15 K, 10990 kPa | 674.38
363.15 K, 12000 kPa | 675.44
363.15 K, 13010 kPa | 676.48
363.15 K, 14010 kPa | 677.5
363.15 K, 15020 kPa | 678.52
363.15 K, 16020 kPa | 679.51
363.15 K, 17030 kPa | 680.5
363.15 K, 18030 kPa | 681.47
363.15 K, 19040 kPa | 682.43
363.15 K, 20040 kPa | 683.38
